In test [1] the test system is HIF1α. The test is described as follows: HIF1α protein level (immunoblot) in SIRT3 WT and KO MEFs. It counts as cell-based, mouse. The note with it: 1 mM DMOG.
Protocol: Significance was assessed by one-way ANOVA. […] Error bars, ±SD. […] Error bars (except for growth curves), ±SEM. (*) p<0.05; (**) p<0.01.
(§1) A series of experiments were performed comparing the effects of hypoxia and DMOG treatment on SIRT3 WT and KO MEFs.
Test [2] relates to HIF1α target genes. The test is described as follows: Expression of HIF1α target genes (qRT-PCR) in SIRT3 WT and KO MEFs. Format: cell-based, mouse. The note with it: DMOG treatment.
Protocol: (B) Fold induction of HIF1αtarget genes in response to hypoxia (n=6) measured by qRT-PCR. The ratio of hypoxic to normoxic gene expression is shown. (C) Fold induction of Glut1 and Hk2 in response to DMOG treatment was measured by qRT-PCR and the ratio of untreated to DMOG-treated gene expression is shown (n=6). […] Significance was assessed by one-way ANOVA. […] Error bars, ±SD.
as §1
Test [3] deals with SIRT3 KO MEFs. The test can be described thus: Growth rates of SIRT3 WT and KO MEFs cultured with NAC. Format: cell-based, mouse. As to conditions: media supplemented with 10 mM NAC. On the procedure:
(A) Nuclear extracts from shNS and shSIRT3 HEK293T cells treated with or without 10 μM MG-132 for 1 hour or 1 mM DMOG for 4 hours as indicated were immunoblotted with antibodies specific to hydroxylated HIF1α (HIF—OH) or total HIF1α. (B) Fold induction of HIF1αtarget genes in response to hypoxia (n=6) measured by qRT-PCR. The ratio of hypoxic to normoxic gene expression is shown. (C) Fold induction of Glut1 and Hk2 in response to DMOG treatment was measured by qRT-PCR and the ratio of untreated to DMOG-treated gene expression is shown (n=6). (D) The increase in ROS production with hypoxia was calculated as the fold change in ROS in hypoxic cells relative to normoxic controls. […] Significance was assessed by one-way ANOVA. […] Error bars, ±SD. Protein carbonyls (I) and lipid peroxidation (J) were measured in brown adipose tissue (BAT) of SIRT3 WT and KO mice (n=7). […] Error bars (except for growth curves), ±SEM. […]
To confirm that the metabolite patterns reflected an increase in glycolysis, lactate produced and secreted from SIRT3 WT and KO MEFs (n=5) was measured and normalized to cell number. […] To test whether this apparent increase in aerobic glycolysis supported an increase in biomass and proliferation, growth rates of the MEFs were measured by seeding SIRT3 WT and KO MEFs in six-well plates at a density of 5,000 cells/well and counting the number of cells in triplicate every 24 hours. […]

Test [4] concerns SIRT3 WT and KO MEFs. The test can be described thus: Glucose uptake and lactate secretion in MEFs with oxidation inhibitors. It counts as cell-based, mouse. As to conditions: WT cells; 100 nM rotenone or 50 μg/ml etomoxir, 24 hours. The text has this: (A) Schematic illustrating the metabolites that are increased or decreased in SIRT3 KO MEFs compared to SIRT3 WT MEFs (n=4), p<0.1. Metabolites in parentheses were not measured. PPP, pentose phosphate pathway. The nonoxidative and oxidative arms of the PPP are shown. Levels of glycolytic intermediates (B), TCA cycle intermediates (C), glucose (D), glucose-1-phosphate (E) and ribose-5-phosphate (F). Growth curves of SIRT3 WT and KO MEFs (n=3) cultured in media containing glucose (G) or galactose (H). Error bars, ±SD. (1-N) Glucose uptake and lactate production in SIRT3 WT and KO MEFs (n=6). (I) Relative glucose uptake and (J) lactate production in SIRT3 WT and KO MEFs. (K) Relative glucose uptake and (L) relative lactate production in SIRT3 WT and KO MEFs incubated with or without 100 nM rotenone. (M) Glucose uptake and (N) lactate production in SIRT3 WT and KO MEFs cultured in the presence or absence of 50 μg/ml etomoxir. Cells were treated with drugs for 24 hours before measuring glucose uptake and lactate. All error bars (except growth curves), ±SEM. […]
Metabolites were isolated by methanol extraction from cultured cells and analyzed by liquid chromatography-mass spectrometry (LC-MS). Lactate production was measured using the Lactate Reagent Kit (Trinity Biosciences). […] SDH activity was determined by a colorometric spectrophotometric assay measuring the reduction of 2,6-dichlorophenolindophenol.

The test system of test [5] is CAMA1 cells. The test is described as follows: Glucose uptake and lactate production in CAMA1 control or SIRT3 overexpressing cells with rotenone or etomoxir. The note with it: 100 nM rotenone or 50 μg/ml etomoxir. It counts as cell-based, human. As to the method:
(A) Lactate production and (B) glucose consumption of MCF7, T47D and CAMA1 cells stably expressing empty vector or SIRT3 and cultured under hypoxia expressed as a ratio of empty-vector normoxic controls. (C) Relative glucose uptake and (D) relative lactate production in CAMA1 control or SIRT3 overexpressing cells incubated with or without 100 nM rotenone. (E) Glucose uptake and (F) lactate production in CAMA1 cell lines cultured in the presence or absence of 50 μg/ml etomoxir. (G) Immunoblots of CAMA1 cells stably expressing control vector or SIRT3-FLAG cultured at 1% oxygen for the indicated. (H) qRT-PCR of HIF1α target genes in CAMA1 cells cultured at 1% oxygen. (I) Induction of HIF1α target genes in response to hypoxia measured by qRT-PCR in CAMA1 cells. The ratio of normoxic to hypoxic gene expression in each cell line is shown. (J) Induction of HIF1α target genes in response to 1 mM DMOG treatment measured by qRT-PCR in CAMA1 cells. The ratio of untreated to DMOG-treated gene expression in each cell line is shown. Growth curves of CAMA1 cells (n=3) cultured in glucose (K) or galactose (L). Error bars, ±SD. (M) Schematic of the regulation of HIF1α and the Warburg effect by SIRT3. β-2-microglobulin was used as an endogenous control for qRT-PCR. Error bars (except for growth curves), ±SEM. (*) p<0.05; (**) p<0.01.
To examine the contribution of complex I activity or fatty acid oxidation on these phenotypes, glucose uptake and lactate production was measured in the presence of rotenone and etomoxir.
Metabolites were isolated by methanol extraction from cultured cells and analyzed by liquid chromatography-mass spectrometry (LC-MS). Lactate production was measured using the Lactate Reagent Kit (Trinity Biosciences). For immunoblotting, cell lysates and immunoprecipitations were probed with the following antibodies: Total OXPHOS antibody cocktail, complex II antibody cocktail, and OSCP (Mitosciences); Flag (Sigma); acetyl-lysine, LSD1 and hydroxylated HIF1α (Cell Signaling); SUCLA2 and GFP (Santa Cruz); GDH (USBiological); mouse HIF1α (Novus Biologicals) and human HIF 1 (BD Biosciences). The antibody recognizing murine SIRT3 was raised in rabbits against the (C) […] epitope conjugated to KLH at the added cysteine (Covance Research Products). SDH activity was determined by a colorometric spectrophotometric assay measuring the reduction of 2,6-dichlorophenolindophenol.

The test system of test [6] is SDHA. The test is described as follows: In vitro deacetylation of SDHA in complex II immunoprecipitates. As to conditions: with NAD, 2 hours at 37° C. It counts as biochemical, mouse.

Results on 5 molecules are retold here after US20130171125A1, “Methods for the Regulation of Cellular Metabolism Through the Modulation of SIRT3 Activity” (National Institutes of Health (NIH), U.S. Dept. of Health …, priority 2010, published 2013).

As to `COC(=O)CNC(=O)C(=O)OC` [DMOG, dimethyloxaloylglycine], the HIF1α stabilization result in test [1] was “stabilize HIF1α”. For the same molecule, the “expression of HIF1α target genes (Glut1, Hk2)” value in test [2] is reported as “induce expression of HIF1α target genes”.

`CC(=O)N[C@@H](CS)C(=O)O` [NAC, N-acetylcysteine]: in test [3], the “proliferation (growth rate)” value was “rescued the increased proliferation of SIRT3 KO MEFs”.

As to `CCOC(=O)[C@@]1(CCCCCCOc2ccc(Cl)cc2)CO1` [etomoxir], in test [4], the “glycolysis (glucose uptake and lactate production)” value is “increased”. For the same molecule, in test [5], the glucose uptake entry is reported as “increased” and the lactate production result is recorded as “increased”.

Consider `C=C(C)[C@H]1Cc2c(ccc3c2O[C@@H]2COc4cc(OC)c(OC)cc4[C@@H]2C3=O)O1` [rotenone], for which the “glycolysis (glucose uptake and lactate production)” value in test [4] was “increased”. Besides, in test [5], the glucose uptake entry is listed as “increased” and the lactate production entry is listed as “increased”.

B1: SIRT3-H248Y-His: catalytically inactive SIRT3 (protein, UniProt Q9NTG7 1-399, looked up, variant H248Y)
chain: MAFWGWRAAAALRLWGRVVERVEAGGGVGPFQACGCRLVLGGRDDVSAGLRGSHGARGEPLDPARPLQRPPRPEVPRAFRRQPRAAAPSFFFSSIKGGRRSISFSVGASSVVGSGGSSDKGKLSLQDVAELIRARACQRVVVMVGAGISTPSGIPDFRSPGSGLYSNLQQYDLPYPEAIFELPFFFHNPKPFFTLAKELYPGNYKPNVTHYFLRLLHDKGLLLRLYTQNIDGLERVSGIPASKLVEAYGTFASATCTVCQRPFPGEDIRADVMADRVPRCPVCTGVVKPDIVFFGEPLPQRFLLHVVDFPMADLLLILGTSLEVEPFASLTEAVRSSVPRLLINRDLVGPLAWHPRSRDVAQLGDVVHGVESLVELLGWTEEMRDLVQRETGKLDGPDK
modifications: His tag
B1: in test [6], the “deacetylation of SDHA” value was “not”.
